Reference: patent US20260285850A1, “SUBSTITUTED OXAZOLIDINONES AND IMIDAZOLINONES AS HERBICIDES” (FMC CORPORATION, priority 2023, published 2026)

How the values were obtained:
Assay type in all cases: in vivo
[1] = system: ryegrass, Italian (italian ryegrass, Lolium multiflorum); assay: Test A preemergence soil spray, visual injury rating 0-100; conditions: 10 days
Outline: (§1)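 Visual injury ratings (0, no effect; 100, complete control) were assigned relative to untreated plants 10 days after treatment. Test chemicals, formulated with a surfactant-containing non-phytotoxic solvent, were applied in loam-sand soil either as a directed soil spray before emergence or to emerged plants, and plants were kept in a greenhouse.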

[2] = system: oat, wild (wild oat, Avena fatua); assay: as above; conditions: 10 days
Outline: as §1

soybean (Glycine max) [3] = assay: as above; conditions: 10 days
Outline: as §1

kochia (Bassia scoparia) [4] = assay: as above; conditions: 10 days
Outline: as §1

[5] = system: palmer (palmer amaranth, palmer pigweed, Amaranthus palmeri); assay: as above; conditions: 10 days
Outline: as §1

corn (Zea mays) [6] = assay: as above; conditions: 10 days
Outline: as §1

[7] = system: ragweed (common ragweed, Ambrosia artemisiifolia); assay: as above; conditions: 10 days
Outline: as §1

[8] = system: barnyardgrass (Echinochloa crus-galli); assay: as above; conditions: 10 days
Outline: as §1

[9] = system: green foxtail (Setaria viridis); assay: as above; conditions: 10 days
Outline: as §1

[10] = system: wheat (Triticum aestivum); assay: as above; conditions: 10 days
Outline: as §1

[11] = system: blackgrass (Alopecurus myosuroides); assay: as above; conditions: 10 days
Outline: as §1

[12] = system: barnyardgrass (Echinochloa crusgalli); assay: Test B flooded paddy test, visual plant response rating 0-100; conditions: 250 g ai/ha, Flood, applied to paddy water, evaluated after 13 days
Outline: (§2)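 Treatment occurs at the 2-leaf stage by adding compound to floodwater standing 3 cm above the soil, a level kept for the whole test. Plants stay in the greenhouse 13 days before visual comparison with controls.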

[13] = system: sedge, umbrella (small-flower umbrella sedge, Cyperus difformis); assay: as above; conditions: 250 g ai/ha, Flood, applied to paddy water, evaluated after 13 days
Outline: as §2

rice (Oryza sativa) = assay: as above; conditions: 250 g ai/ha, Flood, applied to paddy water, evaluated after 13 days
Outline: as §2

[14] = system: ducksalad (Heteranthera limosa); assay: as above; conditions: 250 g ai/ha, Flood, applied to paddy water, evaluated after 13 days
Outline: as §2

[15] = system: ryegrass, Italian (italian ryegrass, Lolium multiflorum); assay: Test A postemergence application, visual injury rating 0-100
Outline: as §1

[16] = system: oat, wild (wild oat, Avena fatua); assay: as above
Outline: as §1

soybean (Glycine max) [17] = assay: as above
Outline: as §1

kochia (Bassia scoparia) [18] = assay: as above
Outline: as §1

[19] = system: palmer (palmer amaranth, palmer pigweed, Amaranthus palmeri); assay: as above
Outline: as §1

[20] = system: galium (catchweed bedstraw, Galium aparine); assay: as above
Outline: as §1

corn (Zea mays) [21] = assay: as above
Outline: as §1

[22] = system: ragweed (common ragweed, Ambrosia artemisiifolia); assay: as above
Outline: as §1

[23] = system: barnyardgrass (Echinochloa crus-galli); assay: as above
Outline: as §1

[24] = system: green foxtail (Setaria viridis); assay: as above
Outline: as §1

[25] = system: wheat (Triticum aestivum); assay: as above
Outline: as §1

[26] = system: blackgrass (Alopecurus myosuroides); assay: as above
Outline: as §1

[27] = 62 g ai/ha, 0 = no effect, 100 = complete control
[28] = 62 g ai/ha, postemergence, 10 days, 0 = no effect, 100 = complete control
[29] = Postemergence, 16 g ai/ha, greenhouse 10 days, 0 no effect, 100 complete control

C=CC1(C(=O)NC2COC(C(=O)OC)C2)CN(c2cc(F)cc(F)c2)C(=O)O1 (centres unmarked) [Compound 170]
Ryegrass, Italian plant response rating ([1]; 16 g ai/ha, 0 to 100 scale): 10
Ryegrass, Italian plant response rating (0-100) [1, 27]: 20
Oat, Wild plant response rating ([2]; 16 g ai/ha, 0 to 100 scale): 0
Oat, Wild plant response rating (0-100) [2, 27]: 0
Soybean plant response rating (soybean (Glycine max) [3]; 16 g ai/ha, 0 to 100 scale): 0
Soybean plant response rating (0-100) (soybean (Glycine max) [3]; [27]): 0
Kochia plant response rating (kochia (Bassia scoparia) [4]; 16 g ai/ha, 0 to 100 scale): 0
Kochia plant response rating (0-100) (kochia (Bassia scoparia) [4]; [27]): 0
Pigweed, Palmer plant response rating ([5]; 16 g ai/ha, 0 to 100 scale): 0
Pigweed, Palmer plant response rating (0-100) [5, 27]: 0
Corn plant response rating (corn (Zea mays) [6]; 16 g ai/ha, 0 to 100 scale): 0
Corn plant response rating (0-100) (corn (Zea mays) [6]; [27]): 0
Ragweed plant response rating ([7]; 16 g ai/ha, 0 to 100 scale): 0
Ragweed plant response rating (0-100) [7, 27]: 0
Barnyardgrass plant response rating ([8]; 16 g ai/ha, 0 to 100 scale): 0
Barnyardgrass plant response rating (0-100) [8, 27]: 0
Foxtail, Green plant response rating ([9]; 16 g ai/ha, 0 to 100 scale): 0
Foxtail, Green plant response rating (0-100) [9, 27]: 0
Wheat plant response rating ([10]; 16 g ai/ha, 0 to 100 scale): 0
Wheat plant response rating (0-100) [10, 27]: 0
Blackgrass plant response rating ([11]; 16 g ai/ha, 0 to 100 scale): 0
Blackgrass plant response rating (0-100) [11, 27]: 0
Plant response rating, Barnyardgrass (0 to 100 scale, 0 is no effect and 100 is complete control) [12]: 0
Plant response rating, Sedge, Umbrella (0 to 100 scale, 0 is no effect and 100 is complete control) [13]: 0
Plant response rating, Rice (0 to 100 scale, 0 is no effect and 100 is complete control) (rice (Oryza sativa)): 0
Plant response rating, Ducksalad (0 to 100 scale, 0 is no effect and 100 is complete control) [14]: 0
Ryegrass, Italian plant response rating (0-100) [15, 28]: 0
Ryegrass, Italian plant response rating (0 to 100 scale) [15, 29]: 0
Oat, Wild plant response rating (0-100) [16, 28]: 0
Oat, Wild plant response rating (0 to 100 scale) [16, 29]: 0
Soybean plant response rating (0-100) (soybean (Glycine max) [17]; [28]): 30
Soybean plant response rating (0 to 100 scale) (soybean (Glycine max) [17]; [29]): 0
Kochia plant response rating (0-100) (kochia (Bassia scoparia) [18]; [28]): 0
Kochia plant response rating (0 to 100 scale) (kochia (Bassia scoparia) [18]; [29]): 0
Pigweed, Palmer plant response rating (0-100) [19, 28]: 0
Pigweed, Palmer plant response rating (0 to 100 scale) [19, 29]: 0
Galium plant response rating (0-100) [20, 28]: 40
Galium plant response rating (0 to 100 scale) [20, 29]: 0
Corn plant response rating (0-100) (corn (Zea mays) [21]; [28]): 0
Corn plant response rating (0 to 100 scale) (corn (Zea mays) [21]; [29]): 0
Ragweed plant response rating (0-100) [22, 28]: 0
Ragweed plant response rating (0 to 100 scale) [22, 29]: 0
Barnyardgrass plant response rating (0-100) [23, 28]: 30
Barnyardgrass plant response rating (0 to 100 scale) [23, 29]: 0
Foxtail, Green plant response rating (0-100) [24, 28]: 0
Foxtail, Green plant response rating (0 to 100 scale) [24, 29]: 0
Wheat plant response rating (0-100) [25, 28]: 0
Wheat plant response rating (0 to 100 scale) [25, 29]: 0
Blackgrass plant response rating (0-100) [26, 28]: 0
Blackgrass plant response rating (0 to 100 scale) [26, 29]: 0
